Results reported in patent publication US7264314B2, “Adrenocorticotropic hormone analogs and related methods” (priority 2004, dated 2007).
No end group written: not given here.

Key:
[1] = test system: serum corticosterone in dexamethasone-suppressed mice; assay: in vivo Serum Corticosteroid Induction Assay; parameters: species or system FVB/N mice; conditions: compared to unmodified mACTH(1–24); 1 μg s.c.; blood one hour after administration
Experimental: An in vivo Serum Corticosteroid Induction Assay measures the level of corticosteroid or corticosterone in the blood stream of a subject. More specifically, the in vivo Serum Corticosteroid Induction Assay can include the following steps: first, an agent to suppress endogenous ACTH production was administered to a mouse subject, such as an intraperitoneal injection of dexamethasone; second, after waiting a suitable period of time for suppression of endogenous ACTH production (e.g., 1.5–2.0 hours), a test compound can be administered to the mouse by a suitable method, such as intraperitoneal or subcutaneous injection; and third, after waiting a suitable period of time (e.g., 1 hour) for action of the injected test compound, a blood sample can be taken from the subject and the level of serum corticosterone can be determined by a suitable method, such as a competitive radioimmunoassay using ^125I RIA kit (ICN, Costa Mesa, Calif.). Example 1 describes a murine in vivo Serum Corticosteroid Induction Assay in detail.
The corticosteroid or corticosterone secretion induced in vivo by an ACTH analog compound was compared to the level of corticosteroid secretion produced by an unmodified ACTH compound by measuring blood serum corticosteroid after administering either the ACTH or ACTH analog as test compounds. […] ACTH analog compositions with decreased function were identified by measuring corticosterone levels using standard radioimmunoassay (RIA) analysis on blood samples collected one hour after administering the mACTH(1–24) or ACTH analog compound to dexamethasone-suppressed mice. In FIG. 1, the potency of various ACTH analog peptides is expressed as per cent induction of corticosterone, with mouse ACTH being 100%. […] The percent of corticosterone induction 12 of ACTH analog Compounds in Samples 2–10 are shown as a percentage of the concentration of serum corticosterone 20 measured for unmodified mACTH(1–24) in the in vivo Serum Corticosteroid Adrenal Induction Assay. The structural modifications and measured percentage reduction in serum measured for Samples 2–10 in FIG. 1 are shown in Table 3 below.
The in vivo Serum Corticosteroid Induction Assay was performed according the following method. First, two to three month-old male FVB/N mice from our colony, five per group, were injected intraperitoneally with dexamethasone (0.4 mg/0.1 ml PBS per mouse; Sigma, St. Louis, Mo.) to suppress their endogenous ACTH production. See Hajos, G T et al., “Studies of the potency of polypeptides with ACTH action by a new method based on continuous measurement of plasma corticosterone,” Steroids Lipids Res 3:225–228 (1972), Costa, J L, et al., “Mutational analysis of evolutionarily conserved ACTH residues,” Gen Comp Endocrinol, 136:12–16 (2004), and Karpac, J, et al., “Development, Maintenance, and Function of the Adrenal Gland in Early Postnatal Pro-opiomelanocortin Null Mutant Mice,” Endocrinology (2005), published online ahead of print Feb. 24, 2005, all of which are incorporated herein by reference.
Second, ninety to one hundred twenty minutes later, the dexamethasone-suppressed mice were injected subcutaneously between the shoulder blades with either unmodified mACTH(1–24) or one of several ACTH analog peptide compounds (1 μg/0.1 mL PBS/0.5% BSA), or with vehicle alone (control) (0.1 mL PBS/0.5% BSA). The following ACTH analog peptide compounds were administered to separate mice: 1: murine ACTH1–24; 2: V26F,E30K; 3: P19W,K21E,Y23R; 4: E30K,P36R; 5: ALA19–24; 6: V26F,P36R; 7: P19W, K21E; 8: P19W,K21A,delY23; 9: P19W,K21A; 10: KRRP16-19RMW (AT814) (SEQ ID NO:20).
Third, one hour later, blood was collected within less than 1 minute from a small incision in the tail, and serum was flash-frozen and stored at −80° C. until assayed. Serum corticosterone was determined by competitive radioimmunoassay (^125I RIA kit; ICN, Costa Mesa, Calif.) according to the manufacturer's recommendations. One microliter of serum was used per assay sample. […]

[2] = test system: corticosterone production by explanted mouse adrenal halves; assay: in vitro Serum-free Adrenal Inhibition Assay; format: cell-based
Experimental: A series of separate in vitro Serum-Free Adrenal Corticosteroid Inhibition Assay were performed to identify ACTH analogs that inhibit ACTH-induced adrenal hormone production in vitro. The concentration of corticosterone was measured according to the procedure of Example 4 in a serum-free culture medium containing explanted adrenal membrane and unmodified ACTH, AT814 ACTH analog (SEQ ID NO:20), or a combination of ACTH and AT814 at 100 ng/mL each. […] Corticosterone levels were taken at 2.0 hours after the adrenal membrane was placed in the serum free M199 medium, and each corticosterone level in Table 5 is an average of five samples.
The in vitro Serum-free Adrenal Inhibition Assay was performed according the following method. First, adrenals were removed from mice, dissected free of fat, and cut in half. See Costa, J L, et al., “Mutational analysis of evolutionarily conserved ACTH residues,” Gen Comp Endocrinol. 136:12–16 (2004); and Weber, M M, et al., “Postnatal overexpression of insulin-like growth factor II in transgenic mice is associated with adrenocortical hyperplasia and enhanced steroidogenesis,” Endocrinology 140:1537–1543 (1999), incorporated herein by reference.
Second, each adrenal half was placed into an individual well of a 4-well dish, one dish per mouse. Adrenal halves were incubated at 5% CO2, 37° C., in 0.5 ml serum-free medium (M199; Invitrogen) for 30 minutes to equilibrate.
Third, medium was removed and replaced by 0.5 ml M199 containing ACTH, AT814, or both, at 100 ng/ml each; controls had no peptides added.
Fourth, after 2 hours of incubation, the medium was removed, pooled for all four halves from each mouse, and assayed by corticosterone using standard RIA methods. corticosterone was determined by competitive radioimmunoassay (^125I RIA kit; ICN, Costa Mesa, Calif.) according to the manufacturer's recommendations. One microliter of serum was used per assay sample. Samples were run in duplicates.

## N-Ser^1-Tyr-Ser-Met-Glu^5-His-Phe-Arg-Trp-Gly^10-Lys-Pro-Val-Gly-Lys^15-Arg-Ala-Ala-Trp-Val^20-Lys-Val-Tyr-Pro-Ac (SYSMEHFRWGKPVGKRAAWVKVYP; not fully specified (C-terminus); printed as N-Ser1-Tyr-Ser-Met-Glu5-His-Phe-Arg-Trp-Gly10-Lys-Pro-Val-Gly-Lys15-Arg-Ala-Ala-Trp-Val20-Lys-Val-Tyr-Pro-Ac) [AT814]
[1]
  Percent reduction in serum corticosteroid: 100%
[2]; AT814 alone
  corticosterone induction relative to ACTH (FIG. 4): negligible amount of corticosterone induction
[2]; equal amounts of AT814 and unmodified ACTH
  reduction of corticosterone induction compared to unmodified ACTH alone: about 65%
[2]; peptide alone, 100 ng/mL, 2 hours after addition, average of five samples, listed as (KKRRP15-19KRAAW) mACTH(1–24)
  corticosterone level in M199 serum-free medium: about 290 mg/mL
